Laboratory results published in BindingDB's records for doi:10.3109/14756366.2012.680063 (Rhodes University, 2013).
Residues, ends and D or L forms follow the SMILES beside them.

How the values were obtained:
[1] = target: T1, Superoxide dismutase [Cu-Zn] (Bovine, UniProt P00442); assay: SOD Assay (Fluorimetric Analysis); conditions: pH 8; 37 °C
Method: SOD activity of the purified samples was determined by the SOD assay kit using (2-(4-iodophenyl)-3-(4nitrophenyl)-5-(2,4-disulphenyl)-2H-tetrazolium, monosodium salt) [WST] which is a colorimetric assay that monitors the rate of inhibition of WST to a water soluble formazan dye.

[2] = target: T1, Superoxide dismutase [Cu-Zn]; assay: SOD Assay (Kinetic Analysis)

T1 sequence (P00442 whole entry): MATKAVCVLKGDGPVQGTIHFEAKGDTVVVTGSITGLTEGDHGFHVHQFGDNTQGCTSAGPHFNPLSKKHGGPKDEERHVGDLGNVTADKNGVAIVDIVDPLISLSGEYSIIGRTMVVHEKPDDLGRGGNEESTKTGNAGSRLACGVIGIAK

Row | Kd [1] [µM] | Ki [2] [µM] | SMILES
1 | 9.38 | 14.4 | CC[C@H](C)[C@H](NC(=O)[C@H](C)NC(=O)CNC(=O)[C@H](CCCCN)NC(=O)[C@H](CC(N)=O)NC(=O)[C@H](CO)NC(=O)CN)C(=O)N[C@H](C(=O)NCC(=O)N[C@@H](CC(C)C)C(=O)N[C@@H](CCSC)C(=O)N[C@H](C(=O)NCC(=O)O)C(C)C)[C@@H](C)CC [Aβ (25-37)] (H-GSNKGAIIGLMVG-OH)
2 | 15.7 | 13.2 | CC[C@H](C)[C@H](NC(=O)[C@H](C)NC(=O)CN)C(=O)N[C@H](C(=O)NCC(=O)O)[C@@H](C)CC [Aβ (29-33)] (H-GAIIG-OH)
